Measured values taken from US8952005B2, “Substituted 1,3-benzothiazol-2(3H)-ones and [1,3]thiazolo[5,4-B]pyridin-2(1H)-ones as positive allosteric modulators of mGluR2” (Merck Sharp & Dohme Corp., priority 2010, dated 2015).

molecular target: T1, recombinant human mGluR2 (Homo sapiens, UniProt Q14416); test: FLIPR Ca2+ mobilization assay, potentiation of glutamate response at mGluR2; assay type: cell-based; conditions: potentiation after addition of EC20 concentration of glutamate (900 nM); CHO dhfr- cells expressing human mGluR2 and Gα16
T1 construct: expressed in transfected cells
Protocol: Inhibition constants are determined as follows. The compounds of the present invention may be tested in a fluorescence laser imaging plate reader (FLIPR) based assay. This assay is a common functional assay to monitor Ca^2+ mobilization in whole cells expressing recombinant receptor coupled with a promiscuous G-protein. CHO dhfr− cells stably expressing recombinant human mGluR2 and Gα16 loaded with Fluo-4 AM (Invitrogen, Carlsbad Calif.) are treated with dose responses of compounds and the Ca^2+ response is monitored on a FLIPR384 (Molecular Devices, Sunnydale Calif.) for agonist activity. The potentiation response is monitored after a subsequent addition of an EC20 concentration of glutamate (900 nM). The maximum calcium response at each concentration of compound for agonist or potentiation are plotted as dose responses and the curves are fitted with a four parameters logistic equation giving EC50 and Hill coefficient using the iterative non linear curve fitting software program.

T1 sequence (Q14416 19-872): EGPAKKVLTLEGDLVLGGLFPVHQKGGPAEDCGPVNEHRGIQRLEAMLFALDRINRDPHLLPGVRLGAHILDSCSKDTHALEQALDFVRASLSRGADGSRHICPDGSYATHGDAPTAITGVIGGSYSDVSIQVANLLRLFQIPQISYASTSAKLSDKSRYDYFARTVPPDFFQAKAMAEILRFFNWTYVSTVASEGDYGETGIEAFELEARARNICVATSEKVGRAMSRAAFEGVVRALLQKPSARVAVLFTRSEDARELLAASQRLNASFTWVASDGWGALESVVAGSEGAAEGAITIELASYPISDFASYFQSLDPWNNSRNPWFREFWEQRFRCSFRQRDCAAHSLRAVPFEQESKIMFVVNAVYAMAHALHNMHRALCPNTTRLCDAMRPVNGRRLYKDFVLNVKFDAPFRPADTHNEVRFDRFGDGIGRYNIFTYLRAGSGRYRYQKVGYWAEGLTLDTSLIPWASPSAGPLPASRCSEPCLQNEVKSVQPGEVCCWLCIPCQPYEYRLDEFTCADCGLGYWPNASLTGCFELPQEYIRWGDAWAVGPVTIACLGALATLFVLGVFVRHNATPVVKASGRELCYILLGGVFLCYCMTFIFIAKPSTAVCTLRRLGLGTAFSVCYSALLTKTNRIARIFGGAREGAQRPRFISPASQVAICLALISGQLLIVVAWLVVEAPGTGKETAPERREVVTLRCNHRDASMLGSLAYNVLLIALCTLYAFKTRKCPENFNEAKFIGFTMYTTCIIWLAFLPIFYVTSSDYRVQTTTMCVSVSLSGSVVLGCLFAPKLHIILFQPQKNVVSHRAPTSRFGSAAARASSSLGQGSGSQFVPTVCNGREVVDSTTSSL

SMILES | EC50 [nM]
Cc1ccc(C(C)(C)O)cc1-c1ccc2c(n1)sc(=O)n2CC1CC1(F)F (stereo not shown) [Example 2-3, 1-{[2,2-difluorocyclopropyl]methyl}-5-[5-(1-hydroxy-1-methylethyl)-2-methylphenyl][1,3]thiazolo[5,4-b]pyridin-2(1H)-one] | 153
O=c1sc2cc(-c3cccc(N4CCS(=O)(=O)CC4)c3)ccc2n1CC1CC1 [Example 6-16, 3-(cyclopropylmethyl)-6-[3-(1,1-dioxidothiomorpholin-4-yl)phenyl]-1,3-benzothiazol-2(3H)-one] | 65
N#Cc1ccccc1-c1ccc2c(c1)sc(=O)n2Cc1ccc(Cl)cc1F [Example 9-15, 2-[3-(4-chloro-2-fluorobenzyl)-2-oxo-2,3-dihydro-1,3-benzothiazol-6-yl]benzonitrile] | 248
N#Cc1cccnc1Oc1ccc2c(c1)sc(=O)n2CC1CC1(F)F (stereo not shown) [Example 18-3, 2-({3-[(2,2-difluorocyclopropyl)methyl]-2-oxo-2,3-dihydro-1,3-benzothiazol-6-yl}oxy)nicotinonitrile] | 306

Compounds with a lower EC50, results first:

EC50 [nM] | SMILES
34 | CC(C)(C)Cn1c(=O)sc2nc(-c3ccccc3C#N)ccc21 [Example 3-2, 2-[1-(2,2-dimethylpropyl)-2-oxo-1,2-dihydro[1,3]thiazolo[5,4-b]pyridin-5-yl]benzonitrile]
17 | N#Cc1ccccc1-c1ccc2c(c1)sc(=O)n2CC1CC1(F)F (stereo not shown) [Example 5-2, 2-(3-{[2,2-difluorocyclopropyl]methyl}-2-oxo-2,3-dihydro-1,3-benzothiazol-6-yl)benzonitrile]
15 | N#Cc1cc(Oc2ccc(C#N)c(-c3ccc4c(n3)sc(=O)n4CC3CC3(F)F)c2)ccn1 (stereo not shown) [Example 16-3, 4-(4-cyano-3-{1-[(2,2-difluorocyclopropyl)methyl]-2-oxo-1,2-dihydro[1,3]thiazolo[5,4-b]pyridin-5-yl}phenoxy)pyridine-2-carbonitrile]
